# Results published in US20030055065A1, “Tricyclic amide and urea compounds useful for inhibition of G-protein function and for treatment of proliferative diseases” (priority 1993, published 2003).
# Several values for one entry are separate records, joined by “and”; a condition that tells them apart may be missing. Equal entries are not always repeated. Where two headings read alike, the source gives them in different places.
# Tests used:
# [1] = tested on: Ras-CVLS processing in COS monkey kidney cells; assay: COS cell assay: Ras-CVLS processing (Western blot); assay type: cell-based; details: COS cells; for IC50: read-out: Inhibition of Ras Processing IC50
# Protocol: 2. […] Effect of farnesyl protein transferase inhibitors on Ras processing and on disordered cell growth induced by transforming Ras. COS monkey kidney cells were transfected by electroporation with the plasmid pSV-SPORT (Gibco/BRL) containing a cDNA insert encoding either Ras-CVLS or Ras-CVLL, leading to transient overexpression of a Ras substrate for either farnesyl protein transferase or geranylgeranyl protein transferase I, respectively (see above). […] After 24 hours, media was removed and fresh media containing the appropriate drugs was re-added. 48 hours after electroporation cells were examined under the microscope to monitor disordered cell growth induced by transforming Ras. Cells expressing transforming Ras become more rounded and refractile and overgrow the monolayer, reminiscent of the transformed phenotype. […] Cells were lysed by homogenization and cell debris was removed by centrifugation at 2000×g for 10 min. Cellular protein was precipitated by addition of ice-cold trichloroacetic acid and redissolved in 100 μl of SDS-electrophoresis sample buffer. […] Proteins resolved on the gels were electroblotted onto nitrocellulose membranes for immunodetection. […] E., et al., (1982), Monoclonal antibodies to the p21 products of the transforming gene of Harvey murine sarcome virus and of the cellular ras gene family, J. Virol. 43: 294-304), in PBS containing 1% fetal calf serum for one hour at room temperature. After washing, membranes were incubated for one hour at room temperature with a 1:5000 dilution of secondary antibody, rabbit anti-rat IgG conjugated to horseradish peroxidase, in PBS containing 1% fetal calf serum.
# [2] = biological target: T1, farnesyl protein transferase (FPT), partially purified from rat brain (Rattus norvegicus, UniProt Q02293+Q04631); assay: Inhibition of farnesyl protein transferase (transfer of [3H]farnesyl to Ras-CVLS); assay type: biochemical
# T1 construct: were partially purified from rat brain by ammonium sulfate fractionation followed by Q-Sepharose
# T1 sequence (Q02293 whole entry, one chain of several): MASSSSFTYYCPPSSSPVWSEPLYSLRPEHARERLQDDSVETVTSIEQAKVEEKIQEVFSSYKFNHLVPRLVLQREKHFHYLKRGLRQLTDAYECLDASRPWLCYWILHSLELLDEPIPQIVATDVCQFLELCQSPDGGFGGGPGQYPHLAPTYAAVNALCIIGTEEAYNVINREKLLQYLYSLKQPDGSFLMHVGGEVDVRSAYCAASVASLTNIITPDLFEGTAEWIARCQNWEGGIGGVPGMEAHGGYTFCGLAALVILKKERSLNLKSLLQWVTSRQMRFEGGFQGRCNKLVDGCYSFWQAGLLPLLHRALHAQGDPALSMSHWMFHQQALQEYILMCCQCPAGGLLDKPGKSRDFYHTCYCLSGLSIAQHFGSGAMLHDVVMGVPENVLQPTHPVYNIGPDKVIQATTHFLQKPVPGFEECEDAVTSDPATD
# Procedure, shortened: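 Transfer of [3H]farnesyl onto E. coli-expressed, His6-tagged Ras-CVLS was measured after 30 min at room temperature. Radiolabelled Ras was TCA-precipitated on ice and filter-harvested, and inhibition was expressed as percent of DMSO control.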
# [3] = tested on: Normal human HEPM fibroblasts; assay: Cell Mat Assay: density of mat cells (mIC50); assay type: cell-based
# Protocol: (§1) Compound-induced colony inhibition was assayed by addition of serial dilutions of compound directly to the growth medium 24 h after tumor cell planting, and incubating cells for an additional 14 d to allow colony formation. Assays were terminated by rinsing monolayers twice with phosphate-buffered saline (PBS), fixing the monolayers with a 1% glutaraldehyde solution in PBS, then visualizing tumor cells by staining with X-Gal (Price, J., et al., Lineage analysis in the vertebrate nervous system by retrovirus-mediated gene transfer, Proc. Natl. Acad. Sci.84, 156-160(1987)). […] Both IC50 values were obtained by determining the density of tumor cells and mat cells by visual inspection and enumeration of cells per colony and the number of colonies under the microscope.
# [4] = tested on: T24-BAG4 human bladder carcinoma cells expressing an activated H-ras gene; assay: Cell Mat Assay: tumor cell colony inhibition (tIC50); assay type: cell-based; details: inhibition of tumor cell growth
# Protocol: as §1
# [5] = enzyme inhibition, read-out: FPT IC50
# [6] = Ras-CVLS farnesylation, partially purified rat brain FPT, read-out: FPT IC50
# [7] = FPT IC50, Ras-CVLS farnesylation, partially purified rat brain FPT
Structure (SMILES),IC50 ([4]; Homo sapiens),"IC50 [2, 6]","IC50 ([1]; Primates, COS)","IC50 ([3]; Homo sapiens, Fibroblast)",other results
O=C(Cc1ccncc1)N1CCN(C2c3ccc(Cl)cc3CCc3cc(Br)cnc32)CC1 (stereo not shown) [Example 426],–,–,0.38 µM,25 µM,"IC50 [2, 5]: 0.012 µM; IC50 [3]: > 12.5 µM"
O=C(Cc1cccnc1)N1CC=C(C2c3ccc(Cl)cc3CCc3cccnc32)CC1 (stereo not shown) [Example 410-D],10 µM,–,18.5 µM,> 50 µM,–
O=C(Nc1cccnc1)N1CCC(C2c3ccc(Cl)cc3C=Cc3c(Cl)ccnc32)CC1 (stereo not shown) [Example 274],–,0.91 µM and 1.38 µM,8 µM,–,–
O=C(C1CCC(O)CC1)N1CCC(=C2c3ccc(Cl)cc3CCc3cccnc32)CC1 (stereo not shown) [Example 97],> 50 µM,4.4 µM,–,> 50 µM,–
Nc1cnc2c(c1)C=Cc1cc(Cl)ccc1C2C1CCN(C(=O)Cc2ccncc2)CC1 (stereo not shown) [Example 402-A],3.1 µM,–,–,> 25 µM,"IC50 ([2]; FPT IC50, enzyme inhibition): 0.45 µM and 0.56 µM"
CC(=O)N1CCC(CC(=O)N2CCN([C@@H]3c4ccc(Cl)cc4CCc4cccnc43)CC2)CC1 [225 (5.98)],12.5 µM,3.5 µM,–,50 µM,–
CC(C)(C(=O)N1CCN(C2c3ccc(Cl)cc3CCc3cccnc32)CC1)c1ccccc1 (stereo not shown) [Example 190],> 50 µM,3.3 µM,–,> 50 µM,–
O=C(c1ccc(Cl)nc1)N1CCC(=C2c3ccc(Cl)cc3CCc3cccnc32)CC1 [Example 98],50 µM,4.4 µM,–,> 50 µM,–
O=C(Cc1ccccn1)N1CCN(C2c3ccc(Cl)cc3CCc3cccnc32)CC1 (stereo not shown) [Example 196],37 µM,–,–,> 50 µM,"IC50 ([4]; listed as 196 (5.69)): 25 µM; IC50 [2, 7]: 0.36 µM"
O=C(N[C@@H](Cc1ccc(O)cc1)C(=O)N1CCC(=C2c3ccc(Cl)cc3CCc3cccnc32)CC1)OCc1ccccc1 [Example 46],–,1.2 µM,–,–,IC50 [1]: > 8 µM; IC50 [3]: > 50 µM
O=C(Cc1cccnc1)N1CCN(C2c3ccc(Cl)cc3CCc3cccnc32)CC1 (stereo not shown) [Example 78],–,–,< 4.6 µM,–,"IC50 [2, 7]: 1 µM and 0.42 µM; IC50 ([2]; FPT IC50, enzyme inhibition): 2.19 µM and 0.53 µM and 0.74 µM and 0.76 µM and 0.97 µM"
O=C(c1ccc([N+](=O)[O-])cc1)N1CCC(=C2c3ccc(Cl)cc3CCc3cccnc32)CC1 [Example 10],25 µM,4.3 µM,–,> 50 µM,–
O=C(CSc1ncccn1)N1CCC(=C2c3ccc(Cl)cc3CCc3cccnc32)CC1 [Example 12],50 µM,4.3 µM,–,> 50 µM,–
CC(C)(C(=O)N1CCC(=C2c3ccc(Cl)cc3C=Cc3cccnc32)CC1)c1cccnc1 [Example 278],–,0.88 µM,2.6 µM,–,–
CN1CCC(CC(=O)N2CCN(C3c4ccc(Cl)cc4CCc4cc(Br)cnc43)CC2)CC1 (stereo not shown) [Example 425-O],–,–,–,6.25 µM,"Toxicity in COS cells at the concentration in parentheses ([1]; (10) μM): tox (10); IC50 [2, 5]: 0.17 µM and 0.14 µM and 0.122 µM and 0.118 µM and 0.178 µM"

# Second part, led by results:
IC50 ([4]; Homo sapiens),"IC50 [2, 6]",Structure (SMILES),"IC50 ([1]; Primates, COS)","IC50 ([3]; Homo sapiens, Fibroblast)",other results
40 µM,4 µM,C[S+]([O-])c1ccc(C(=O)N2CCC(=C3c4ccc(Cl)cc4CCc4cccnc43)CC2)cc1 (stereo not shown) [Example 94],–,80 µM,–
–,2.4 µM,O=C(C(=O)N1CCC(=C2c3ccc(Cl)cc3CCc3cccnc32)CC1)c1ccc([N+](=O)[O-])cc1 [Example 295],20.8 µM,–,–
–,1.33 µM,O=C(Nc1cccnc1)N1CCC(C2c3ccc(Cl)cc3C=Cc3cccnc32)CC1 (stereo not shown) [Example 267],12.5 µM,–,–
50 µM,3.9 µM,CS(=O)(=O)Nc1ccc(C(=O)N2CCC(=C3c4ccc(Cl)cc4CCc4cccnc43)CC2)cc1 [Example 91],–,80 µM,–
37 µM,1.09 µM,O=C(Nc1ccccc1)N1CCN(C2c3ccc(Cl)cc3CCc3cccnc32)CC1 (stereo not shown) [Example 182],–,> 50 µM,–
37 µM,8.17 µM,O=C(Cc1cccc(O)c1)NCC(=O)N1CCN(C2c3ccc(Cl)cc3CCc3cccnc32)CC1 (stereo not shown) [Example 211],–,> 50 µM,–
